Results on eight compounds are retold here after patent publication EP0423419B1, “Inhibitive agent against activity of alpha-amylase” (MITSUI NORIN CO., LTD., priority 1989, dated 1991).

Tested on in one data set: not listed separately
The experiment in a line: Acute toxicity in mice (LD50). The settings on record: mouse, in vivo, ip; intraperitoneal administration, ICR mice, Van der Waerden method; read-out: LD₅₀. The procedure: An animal test was conducted by using ICR mice as the test animals to examine the acute toxicity of the inventive inhibitive agent against the activity of α-amylase. The values of LD₅₀ calculated according to the Van der Waerdrn method within the confidence limit were: 2412 mg/kg in the oral administration of the same crude mixture of catechin compounds as used in Example 2; 55.2 mg/kg in the intraperitoneal administration of a crude mixture of theaflavin compounds of the composition shown in Table 5 below; and 150 mg/kg in the intraperitoneal administration of epigallocatechin gallate.
Turning to `O=C(O[C@@H]1Cc2c(O)cc(O)cc2O[C@@H]1c1cc(O)c(O)c(O)c1)c1cc(O)c(O)c(O)c1` [Epigallocatechin gallate, (-)epigallocatechin gallate], the LD50 was 150 mg/kg.

The next data set has as its target T1, α-amylase prepared from human saliva (Homo sapiens, UniProt P0DUB6).
T1 construct: α-amylase prepared from human saliva; purchased Sigma Co; host or cells: human saliva
T1 sequence (P0DUB6 16-511): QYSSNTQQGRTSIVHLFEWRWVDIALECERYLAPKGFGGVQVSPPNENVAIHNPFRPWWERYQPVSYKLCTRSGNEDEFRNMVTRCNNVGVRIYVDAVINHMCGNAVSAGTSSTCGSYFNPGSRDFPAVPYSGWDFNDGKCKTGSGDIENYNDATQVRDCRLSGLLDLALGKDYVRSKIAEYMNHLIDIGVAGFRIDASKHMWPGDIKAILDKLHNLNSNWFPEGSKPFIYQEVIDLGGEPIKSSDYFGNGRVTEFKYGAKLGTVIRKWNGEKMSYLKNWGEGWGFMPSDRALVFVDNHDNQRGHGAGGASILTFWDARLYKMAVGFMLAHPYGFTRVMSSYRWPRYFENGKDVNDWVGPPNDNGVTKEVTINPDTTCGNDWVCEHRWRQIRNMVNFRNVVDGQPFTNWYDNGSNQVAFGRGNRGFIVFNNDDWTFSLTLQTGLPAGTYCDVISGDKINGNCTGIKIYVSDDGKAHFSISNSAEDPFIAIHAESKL
Kind of data set: Inhibition of the activity of α-amylase (reducing sugar from soluble starch, Bernfeld method). It counts as biochemical.
Settings: not given
`O=C(O)c1cc(O)c(O)c(O)c1` [Gallic acid, reference compound] came in with an IC50 greater than 1000 µM.

Still in this data set, the particulars now being: human saliva α-amylase, 10 min preincubation at 37°C, soluble starch 2.0 mg/ml; read-out: Concentration for 50% inhibition.
Turning to `O=c1c(O)cc([C@H]2Oc3cc(O)cc(O)c3C[C@H]2O)cc2c([C@H]3Oc4cc(O)cc(O)c4C[C@H]3O)cc(O)c(O)c12` [Free theaflavin, free theaflavin], the IC50 is 18 µM. Same read-out and setting: to `O=C(O[C@@H]1Cc2c(O)cc(O)cc2O[C@@H]1c1cc(O)c(O)c(O)c1)c1cc(O)c(O)c(O)c1` [Epigallocatechin gallate, (-)epigallocatechin gallate] belongs 260 µM; to `O=C(O[C@@H]1Cc2c(O)cc(O)cc2O[C@@H]1c1ccc(O)c(O)c1)c1cc(O)c(O)c(O)c1` [Epicatechin gallate, (-)epicatechin gallate], 130 µM; to `Oc1cc(O)c2c(c1)O[C@H](c1cc(O)c(O)c(O)c1)[C@H](O)C2` [Epicagallcatechin, (-)epigallocatechin], greater than 1000 µM. On the same count and under the same terms, to `Oc1cc(O)c2c(c1)O[C@H](c1ccc(O)c(O)c1)[C@H](O)C2` [Epicatechin, (-)epicatechin] belongs greater than 1000 µM. On the same count and under the same terms, to `O=C(O[C@@H]1Cc2c(O)cc(O)cc2O[C@@H]1c1cc(O)c(=O)c2c(O)c(O)cc([C@H]3Oc4cc(O)cc(O)c4C[C@H]3O)c2c1)c1cc(O)c(O)c(O)c1` [Theaflavin monogallate A, theaflavin monogallate A] belongs 1 µM; to `O=C(O[C@@H]1Cc2c(O)cc(O)cc2O[C@@H]1c1cc(O)c(O)c2c(=O)c(O)cc([C@H]3Oc4cc(O)cc(O)c4C[C@H]3O)cc12)c1cc(O)c(O)c(O)c1` [Theaflavin monogallate B, theaflavin monogallate B], 1.7 µM.
